# US20140080868A1, “Methods for Treating HCV” (priority 2012, published 2014)
# What was measured:
# Format in all cases: cell-based
# [1] = test system: HCV replicon with NS5A genotype 6a wild type; test: Transient chimeric replicon assay, genotype 6a WT; conditions: Hepatitis C virus, read-out: Average EC50
# Source text: (§1) Transiently replicating chimeric replicons containing NS5A from genotype 2-6 wild types or replicons containing variants within NS5A were constructed in the 1b-Con1 background. These replicons also contained a firefly luciferase reporter gene. Variants were introduced by site-directed mutagenesis using the Change-IT Multiple Mutation Site Directed Mutagenesis Kit (USB). After the mutagenesis was confirmed by sequence analysis, the plasmids were linearized with Scat restriction enzyme. The TranscriptAid T7 High Yield Transcription Kit (Fermentas) was used to transcribe the HCV subgenomic RNA from the plasmids. The RNA was transfected via electroporation into a Huh-7 derived cell line as described (see Middleton et al. and Tripathi et al., supra) except that 3×10^6 cells were electroporated with 15 μg of template RNA and the 96 well plate was seeded with 7.5×10^3 cells per well. Four hours post-transfection, the wells from one plate were harvested for luciferase measurement. […] Luciferin solution (50 μl, Promega) was added to each well, and luciferase activity was measured with a Victor II luminometer (Perkin-Elmer). The percent inhibition of HCV RNA replication was calculated for each compound concentration and the EC50 value was calculated using nonlinear regression curve fitting to the 4-parameter logistic equation and GraphPad Prism 4 software.
# [2] = test system: stable subgenomic replicons with NS5A from HCV genotype 1a, 1b, 2a, 2b, 3a, 4a, 5a, and 6a; test: Stable subgenomic replicons, genotype panel (summary statement); conditions: Hepatitis C virus, read-out: EC50 values against stable subgenomic replicons with NS5A from a broad range of HCV genotypes
# [3] = test system: HCV replicon with NS5A genotype 3a wild type; test: Transient chimeric replicon assay, genotype 3a WT; conditions: Hepatitis C virus, read-out: Average EC50
# Source text: as §1
# [4] = test system: HCV replicon with NS5A genotype 6a T58N variant; test: Transient chimeric replicon assay, genotype 6a T58N; conditions: Hepatitis C virus, read-out: Average EC50
# Source text: as §1
# [5] = test system: HCV replicon genotype 1a-H77; test: Stable subgenomic replicon luciferase assay, genotype 1a-H77; conditions: Hepatitis C virus, luciferase reporter, 5% FBS, read-out: Mean EC50 ± Std. Dev.
# [6] = test system: HCV replicon with NS5A genotype 4a L30H variant; test: Transient chimeric replicon assay, genotype 4a L30H; conditions: Hepatitis C virus, read-out: Average EC50
# Source text: as §1
# [7] = test system: HCV replicon with NS5A genotype 5a L31F variant; test: Transient chimeric replicon assay, genotype 5a L31F; conditions: Hepatitis C virus, read-out: Average EC50
# Source text: as §1
# [8] = test system: HCV replicon with NS5A genotype 6a T58A variant; test: Transient chimeric replicon assay, genotype 6a T58A; conditions: Hepatitis C virus, read-out: Average EC50
# Source text: as §1
# [9] = test system: HCV replicon genotype 1b-Con1; test: Stable subgenomic replicon luciferase assay, genotype 1b-Con1; conditions: Hepatitis C virus, luciferase reporter, 5% FBS, read-out: Mean EC50 ± Std. Dev.
# [10] = test system: HCV replicon with NS5A genotype 2b wild type; test: Transient chimeric replicon assay, genotype 2b WT; conditions: Hepatitis C virus, read-out: Average EC50
# Source text: as §1
# [11] = test system: HCV replicon with NS5A genotype 2b L28F variant; test: Transient chimeric replicon assay, genotype 2b L28F; conditions: Hepatitis C virus, read-out: Average EC50
# Source text: as §1
# [12] = test system: HCV replicon with NS5A from genotype 4a; test: Stable chimeric 1b-Con1 replicon with NS5A from genotype 4a; conditions: Hepatitis C virus, read-out: Mean EC50 ± Std. Dev.
# [13] = test system: HCV variants that are resistant to other NS5A inhibitors; test: Transient subgenomic replicon assays, resistant variant panel (summary statement); conditions: Hepatitis C virus, read-out: EC50 values against HCV variants resistant to other NS5A inhibitors, transient subgenomic replicon assays
# Source text: as §1
# [14] = test system: HCV replicon with NS5A genotype 5a wild type; test: Transient chimeric replicon assay, genotype 5a WT; conditions: Hepatitis C virus, read-out: Average EC50
# Source text: as §1
# [15] = test system: HCV replicon with NS5A from genotype 2b; test: Stable chimeric 1b-Con1 replicon with NS5A from genotype 2b; conditions: Hepatitis C virus, read-out: Mean EC50 ± Std. Dev.
# [16] = test system: HCV replicon with NS5A genotype 5a L28I variant; test: Transient chimeric replicon assay, genotype 5a L28I; conditions: Hepatitis C virus, read-out: Average EC50
# Source text: as §1
# [17] = test system: HCV replicon with NS5A from genotype 6a; test: Stable chimeric 1b-Con1 replicon with NS5A from genotype 6a; conditions: Hepatitis C virus, read-out: Mean EC50 ± Std. Dev.
# [18] = test system: HCV replicon with NS5A genotype 3a Y93H variant; test: Transient chimeric replicon assay, genotype 3a Y93H; conditions: Hepatitis C virus, read-out: Average EC50
# Source text: as §1
# [19] = test system: HCV replicon with NS5A from genotype 3a; test: Stable chimeric 1b-Con1 replicon with NS5A from genotype 3a; conditions: Hepatitis C virus, read-out: Mean EC50 ± Std. Dev.
# [20] = test system: HCV replicon with NS5A genotype 2a T24A variant; test: Transient chimeric replicon assay, genotype 2a T24A; conditions: Hepatitis C virus, read-out: Average EC50
# Source text: as §1
# [21] = test system: HCV replicon with NS5A genotype 2a wild type; test: Transient chimeric replicon assay, genotype 2a WT; conditions: Hepatitis C virus, read-out: Average EC50
# Source text: as §1
# [22] = test system: HCV replicon with NS5A from genotype 2a; test: Stable chimeric 1b-Con1 replicon with NS5A from genotype 2a; conditions: Hepatitis C virus, read-out: Mean EC50 ± Std. Dev.
# [23] = test system: HCV replicon with NS5A genotype 6a L31V variant; test: Transient chimeric replicon assay, genotype 6a L31V; conditions: Hepatitis C virus, read-out: Average EC50
# Source text: as §1
# [24] = test system: HCV replicon with NS5A from genotype 5a; test: Stable chimeric 1b-Con1 replicon with NS5A from genotype 5a; conditions: Hepatitis C virus, read-out: Mean EC50 ± Std. Dev.
# [25] = test system: HCV replicon with NS5A genotype 3a M28T variant; test: Transient chimeric replicon assay, genotype 3a M28T; conditions: Hepatitis C virus, read-out: Average EC50
# Source text: as §1
# [26] = test system: HCV replicon with NS5A genotype 2b L31V variant; test: Transient chimeric replicon assay, genotype 2b L31V; conditions: Hepatitis C virus, read-out: Average EC50
# Source text: as §1
# [27] = test system: HCV replicon with NS5A genotype 4a L28V variant; test: Transient chimeric replicon assay, genotype 4a L28V; conditions: Hepatitis C virus, read-out: Average EC50
# Source text: as §1
# [28] = test system: HCV replicon with NS5A genotype 5a L31V variant; test: Transient chimeric replicon assay, genotype 5a L31V; conditions: Hepatitis C virus, read-out: Average EC50
# Source text: as §1
Structure (SMILES),EC50 [1],EC50 [3],EC50 [4],EC50 [7],EC50 [8],EC50 [10],EC50 [11],EC50 [16],EC50 [18],EC50 [20],EC50 [21],EC50 [23],also measured
"COC(=O)N[C@H](C(=O)N1CCC[C@H]1c1nc2cc([C@H]3CC[C@H](c4cc5nc([C@@H]6CCCN6C(=O)[C@@H](NC(=O)OC)[C@@H](C)OC)[nH]c5cc4F)N3c3cc(F)c(N4CCC(c5ccc(F)cc5)CC4)c(F)c3)c(F)cc2[nH]1)[C@@H](C)OC [Compound 1, methyl {(2S,3R)-1-[(2S)-2-{5-[(2R,5R)-1-{3,5-difluoro-4-[4-(4-fluorophenyl)piperidin-1-yl]phenyl}-5-(6-fluoro-2-{(2S)-1-[N-(methoxycarbonyl)-O-methyl-L-threonyl]pyrrolidin-2-yl}-1H-benzimidazol-5-yl)pyrrolidin-2-yl]-6-fluoro-1H-benzimidazol-2-yl}pyrrolidin-1-yl]-3-methoxy-1-oxobutan-2-yl}carbamate]",0.0014 nM,0.0018 nM,0.0025 nM,0.0019 nM,0.0015 nM,0.001 nM,0.0011 nM,0.001 nM,0.0043 nM,0.0013 nM,0.0013 nM,0.001 nM,EC50 [2]: < 10000 nM; EC50 [5]: 0.0018 ± 0.0009 nM; EC50 [6]: 0.001 nM; EC50 [9]: 0.0043 ± 0.0017 nM; EC50 [12]: 0.0019 ± 0.0006 nM; EC50 [13]: < 5000 nM; EC50 [14]: 0.0011 nM; EC50 [15]: 0.0019 ± 0.0006 nM; EC50 [17]: 0.0028 ± 0.0007 nM; EC50 [19]: 0.0021 ± 0.0007 nM; EC50 [22]: 0.0023 ± 0.0007 nM; EC50 [24]: 0.0014 ± 0.0004 nM
"COC(=O)N[C@H](C(=O)N1CCC[C@H]1C(=O)Nc1ccc([C@@H]2CC[C@@H](c3ccc(NC(=O)[C@@H]4CCCN4C(=O)[C@@H](NC(=O)OC)C(C)C)cc3)N2c2ccc(C(C)(C)C)cc2)cc1)C(C)C [reference compound, reference compound]",0.08 nM,0.0072 nM,8.47 nM,0.263 nM,1.15 nM,0.0011 nM,0.039 nM,0.072 nM,> 100 nM,0.092 nM,0.0034 nM,5.04 nM,EC50 [25]: 3.03 nM; EC50 [26]: 0.427 nM; EC50 [27]: 0.0053 nM; EC50 [28]: 0.221 nM
